{"source": "patent US10806798B2", "about": "“Compound with effects of thrombolysis, free radical scavenging and thrombus-targeting” (Shanghai Lumosa Therapeutics Co., Ltd., priority 2012, dated 2020)", "format_in_all_cases": "in vivo, SD rats", "key": {"rats with stroke [1]": {"tested_on": "rats with stroke", "assay": "Successive treatments starting 4 h after the onset of stroke (Zealonga scores)", "protocol": "The efficacy was represented by neural function scores, and a lower score indicates higher efficacy. A 10% chloral hydrate solution was injected intraperitoneally into male SD rats at a dosage of 400 mg/kg body weight for anesthesia. A longitudinal incision was made at the center of the neck, and the right carotid common artery trunk was dissected (about 3 cm in length). Carotid external artery branches were each dissected and ligated at the hyoid level, and the carotid internal artery was dissected at the swollen part of the neck. The open incision in the carotid internal artery and the proximal end of the common carotid artery were occluded respectively with noninvasive arterial clips, and the distal end of the carotid external artery was ligated. A catheter containing 0.5 mL thrombus suspension in normal saline was inserted in the carotid external artery trunk. At the same time when the clip on the carotid internal artery was released, the 0.5 mL thrombus suspension in normal saline in the catheter slowly flew from the carotid external artery to its proximal end, and then was injected into the arteries in brain through the carotid internal artery. Subsequently, the proximal end of the carotid artery was ligated, the arterial clips on the carotid internal artery and the common carotid artery were released, and blood flow was restored. After the wound was stitched up, 20,000 IU penicillin was intramuscularly injected for prevention from infection. After 4 h, compound Ie in normal saline (at a dosage of 1 μmol/kg, n=1), urokinase in normal saline (at a dosage of 20000 IU/kg, n=6) or tPA in normal saline (at a dosage of 3 mg/kg, n=6) was infused through the tail vein. Infusion of compound Ie in normal saline through rat tail vein was carried out once per day for 6 consecutive days, observed for 7 days. The rats were compared to themselves each day, and evaluated for degree of damage in neural function by the Zealonga method. Alternatively, infusion of urokinase in normal saline through rat tail vein was carried out once per day for two consecutive days, the rats were compared to themselves each day, and evaluated for the degree of damage in neural function by the Zealonga method. Alternatively, infusion of tPA in normal saline through rat tail vein was carried out once per day for two consecutive days, the rats were compared to themselves each day, and evaluated for the degree of damage in neural function by the Zealonga method. A score of 0 indicated no sign of loss in neural function, 1 indicated the front limbs on the undamaged side could not stretch out, 2 indicated walking toward the undamaged side, 3 indicated tail-chasing walking in circles toward the undamaged side, 4 indicated involuntary walking with disturbance of consciousness, and 5 indicated death."}, "rats with stroke [2]": {"tested_on": "rats with stroke", "assay": "Immediate treatment after stroke onset with different dosages of Ie (Zealonga scores)", "protocol": "A 10% chloral hydrate solution (400 mg/kg) was injected intraperitoneally into male SD rats (250 to 300 g) for anesthesia. An incision of about 2 cm in length was longitudinally made slightly on the right to the center of the neck, and the right carotid common artery, carotid external artery and carotid internal artery were dissected along the margin of the inner side of sternocleidomastoid muscles. The open incision in the carotid internal artery and the proximal end of the common carotid artery were occluded respectively with noninvasive arterial clips. A small incision was made on the carotid external artery, and the distal end of the carotid external artery was ligated. The arterial clip at the proximal end of the carotid external artery was released, and 10 μl blood was drawn before the proximal end of the common carotid artery was again occluded with a noninvasive arterial clip. The 10 μl blood drawn was placed in a 1 mL EP vial and kept at RT for 30 min until coagulation of blood, and then transferred into a −20° C. refrigerator for 1 h to allow solid coagulation. After 1 h, the blood clots were taken out, added into 1 mL saline, and then broken into relatively uniform microthrombus by using a steel spatula. The microthrombus suspension was then transferred into a 1 mL injector until use. At the same time when the clip on the carotid internal artery of the rat was released, the 1 mL thrombus suspension in the injector was slowly injected from the carotid external artery of the rat to its proximal end, and then was injected into the brain of the rat through the carotid internal artery. Subsequently, the proximal end of the carotid external artery was ligated, the arterial clips on the carotid internal artery and the carotid common artery were released, and blood flow was restored. Injection of urokinase in normal saline (positive control group, at a dosage of 20000 IU/kg), tPA in normal saline (positive control group, at a dosage of 3 mg/kg), normal saline (blank control group, at a dosage of 3 mL/kg), or compound Ie in normal saline (at a dosage of 1 μmol/kg, 0.1 μmol/kg or 0.01 μmol/kg) was carried out. 24 h after the rats were awake, the degree of damage in neural function was evaluated by the Zealonga method. A score of 0 indicated no sign of loss in neural function, 1 indicated the front limbs on the undamaged side could not stretch out, 2 indicated walking toward the undamaged side, 3 indicated tail-chasing walking in circles toward the undamaged side, 4 indicated involuntary walking with disturbance of consciousness, and 5 indicated death. As shown in the results, in rats receiving immediate treatment after the onset of stroke with […] compound Ie, the percentage of rats with a neural function score of 0 was 60%, 30%, and 0%, respectively; and the percentage of rats with a neural function score of 1 was 20%, 30%, and 10%, respectively."}, "rats with stroke [3]": {"tested_on": "rats with stroke", "assay": "Successive treatments with 1 μmol/kg Ie starting 6 h after the onset of stroke (Zealonga scores)", "protocol": "The efficacy was represented by neural function scores, and a lower score indicates higher efficacy. A 10% chloral hydrate solution was injected intraperitoneally into male SD rats at a dosage of 400 mg/kg body weight for anesthesia. A longitudinal open incision was made at the center of the neck, and the right common carotid artery trunk was dissected (about 3 cm in length). Carotid external artery branches were each dissected and ligated at the hyoid level, and the carotid internal artery was dissected at the swollen part of the neck. The open incision in the carotid internal artery and the proximal end of the common carotid artery were occluded respectively with noninvasive arterial clips, and the distal end of the carotid external artery was ligated. A catheter containing 0.5 mL thrombus suspension in normal saline was inserted in the carotid external artery trunk. At the same time when the clip on the carotid internal artery was released, the 0.5 mL thrombus suspension in normal saline in the catheter slowly flew from the carotid external artery to its proximal end, and then was injected into the arteries in brain through the carotid internal artery. Subsequently, the proximal end of the carotid artery was ligated, the arterial clips on the carotid internal artery and the common carotid artery were released, and blood flow was restored. After the wound was stitched up, 20,000 IU penicillin was intramuscularly injected for prevention from infection. After 6 h, compound Ie in normal saline (at a dosage of 1 μmol/kg, n=11), urokinase in normal saline (at a dosage of 20000 IU/kg, n=6) or tPA in normal saline (at a dosage of 3 mg/kg, n=6) was infused through the tail vein. Infusion of compound Ie in normal saline through rat tail vein was carried out once per day for 6 consecutive days, observed for 7 days. The rats were compared to themselves each day, and evaluated for the degree of damage in neural function by the Zealonga method. Alternatively, infusion of urokinase in normal saline through rat tail vein was carried out once per day for two consecutive days, the rats were compared to themselves each day, and evaluated for the degree of damage in neural function by the Zealonga method. Alternatively, infusion of tPA in normal saline through rat tail vein was carried out once per day for two consecutive days, the rats were compared to themselves each day, and evaluated for the degree of damage in neural function by the Zealonga method. A score of 0 indicated no sign of loss in neural function, 1 indicated the front limbs on the undamaged side could not stretch out, 2 indicated walking toward the undamaged side, 3 indicated tail-chasing walking in circles toward the undamaged side, 4 indicated involuntary walking with disturbance of consciousness, and 5 indicated death."}, "[4]": {"settings": "Day 1, tPA 3 mg/kg once per day from 4 h after stroke onset, n=6"}, "[5]": {"settings": "Day 2, tPA 3 mg/kg once per day from 4 h after stroke onset, n=6"}, "[6]": {"settings": "Day 1, tPA 3 mg/kg once per day from 6 h after stroke onset, n=6"}, "[7]": {"settings": "Day 2, tPA 3 mg/kg once per day from 6 h after stroke onset, n=6"}}, "data": [{"substance": "tPA: tissue-type plasminogen activator, positive control", "values": [{"measurement": "number of rats scored Score 1", "setting": "rats with stroke [1]; [4]", "result": 2, "unit": "rats"}, {"measurement": "number of rats scored Score 2", "setting": "rats with stroke [1]; [4]", "result": 3, "unit": "rats"}, {"measurement": "number of rats scored Score 3", "setting": "rats with stroke [1]; [4]", "result": 1, "unit": "rat rats"}, {"measurement": "number of rats scored Score 0", "setting": "rats with stroke [1]; [5]", "result": 2, "unit": "rats"}, {"measurement": "number of rats scored Score 1", "setting": "rats with stroke [1]; [5]", "result": 2, "unit": "rats"}, {"measurement": "number of rats scored Score 2", "setting": "rats with stroke [1]; [5]", "result": 1, "unit": "rat^ rats"}, {"measurement": "rats recovered to have only the sign of slight loss in neural function", "setting": "rats with stroke [1]; after two doses, tPA 3 mg/kg each day from 4 h after stroke onset, 6 rats", "result": 2, "unit": "rats"}, {"measurement": "rats died", "setting": "rats with stroke [1]; out of 6 rats, within 24 h, tPA 3 mg/kg each day from 4 h after stroke onset", "result": 1}, {"measurement": "autopsy on the dead rat", "setting": "rats with stroke [1]; tPA 3 mg/kg each day from 4 h after stroke onset", "result": "hemorrhage in internal organs, particularly severe hemorrhage in lungs"}, {"measurement": "percentage of rats with a neural function score of 0", "setting": "rats with stroke [2]; 3 mg/kg tPA", "result": 40, "unit": "%"}, {"measurement": "percentage of rats with a neural function score of 1", "setting": "rats with stroke [2]; 3 mg/kg tPA", "result": 10, "unit": "%"}, {"measurement": "number of rats scored Score 0", "setting": "rats with stroke [2]; tPA 3 mg/kg, n = 10", "result": 4}, {"measurement": "number of rats scored Score 1", "setting": "rats with stroke [2]; tPA 3 mg/kg, n = 10", "result": 1}, {"measurement": "number of rats scored Score 2", "setting": "rats with stroke [2]; tPA 3 mg/kg, n = 10", "result": 1}, {"measurement": "number of rats scored Score 3", "setting": "rats with stroke [2]; tPA 3 mg/kg, n = 10", "result": 3}, {"measurement": "number of rats scored Score 4", "setting": "rats with stroke [2]; tPA 3 mg/kg, n = 10", "result": 1}, {"measurement": "number of rats scored Score 5", "setting": "rats with stroke [2]; tPA 3 mg/kg, n = 10", "result": 0}, {"measurement": "number of rats scored Score 0", "setting": "rats with stroke [3]; [6]", "result": 1, "unit": "rat^ rats"}, {"measurement": "number of rats scored Score 1", "setting": "rats with stroke [3]; [6]", "result": 1, "unit": "rat rats"}, {"measurement": "number of rats scored Score 2", "setting": "rats with stroke [3]; [6]", "result": 1, "unit": "rat rats"}, {"measurement": "number of rats scored Score 3", "setting": "rats with stroke [3]; [6]", "result": 1, "unit": "rat rats"}, {"measurement": "number of rats scored Score 4", "setting": "rats with stroke [3]; [6]", "result": 2, "unit": "rats"}, {"measurement": "number of rats scored Score 0", "setting": "rats with stroke [3]; [7]", "result": 2, "unit": "rats"}, {"measurement": "number of rats scored Score 2", "setting": "rats with stroke [3]; [7]", "result": 1, "unit": "rat rats"}, {"measurement": "number of rats scored Score 3", "setting": "rats with stroke [3]; [7]", "result": 1, "unit": "rat rats"}, {"measurement": "rats recovered to have only the sign of slight loss in neural function", "setting": "rats with stroke [3]; after two doses, tPA 3 mg/kg each day from 6 h after stroke onset, 6 rats", "result": 2, "unit": "rats"}, {"measurement": "rats died", "setting": "rats with stroke [3]; out of 6 rats, within 24 h, tPA 3 mg/kg each day from 6 h after stroke onset", "result": 2}, {"measurement": "autopsy on the dead rats", "setting": "rats with stroke [3]; tPA 3 mg/kg each day from 6 h after stroke onset", "result": "hemorrhage in internal organs, particularly severe hemorrhage in lungs"}]}]}
